Measurements taken from patent publication EP3335720A1, “C-DI-GMP BINDING PEPTIDES” (Universität Basel, priority 2016, dated 2018).

What was measured:
c-di-GMP = experiment: Binding affinity of peptides to c-di-GMP by isothermal titration calorimetry (ITC); details: for Dissociation constant: pH 8.0
Method: Binding affinities of peptides to c-di-GMP were measured using isothermal titration calorimetry (ITC) on a VP-ITC MicroCalorimeter (MicroCal, Northampton, MA, USA). Peptides, c-di-GMP and buffer (50 mM Tris-HCl, pH 8.0, 100 mM NaCl) were degassed for 15 min prior to filling into sample cell and syringe. All experiments were carried out at a temperature of 15°C. The data were evaluated using ITC Data Analysis in ORIGIN provided by the manufacturer.

in vitro [1] = assay type: in vitro ADME, P. aeruginosa PAO1
Method: (§1) P. aeruginosa PAO1 lysate, which was used to test peptide stability, was prepared by the following procedure. 500 ml of cells grown overnight at 37°C were harvested by centrifugation at 5000 rpm, 10 min at 4°C. Pellets were resuspended in 60 ml PBS (Gibco) and centrifuged at 5000 rpm, 10 min at 4°C. Pellets were resuspended again in 20 ml PBS and centrifuged at 5000 rpm, 10 min at 4°C. Cells were disrupted using high-pressure cell disrupter (Stansted Fluid Power). Cell lysate was separated from cell debris by centrifugation at 14,000 rpm for 20 min at 4°C. Lysate was diluted 10 fold to yield a protein content of about 1 mg/ml. The lysate was used for all experiments described below.
The stability of peptides was tested against P. aeruginosa PAO1 cell lysate. About 1 to 3 µg of peptides were incubated with 5 µl P. aeruginosa PAO1 cell lysate or PBS (untreated controls) at 37°C. After 2 hours, 6 µl of 2x SDS sample buffer was added to the samples and heated to 95°C for 5 min. Samples were analyzed on 10-20% Mini-PROTEAN tris-tricine gels (BIO-RAD #4563115) according to manufacturer's recommended protocol. Band intensities were quantified using the program ImageJ (Schneider, C. A., Rasband, W. S. and Eliceiri, K. W. 2012. NIH Image to ImageJ: 25 years of image analysis. Nature methods. 9: 671-675).

[2] = test system: P. aeruginosa PAO1 biofilms; assay type: cell-based
Method: The parameter "MBIC50", as used herein, is defined as the peptide concentration leading to 50% biofilm reduction in a standard biofilm assay. Preferably, the medium used for the assay is Mueller-Hinton broth (MHB), since most bacteria can be grown in this medium, and it allows a reliable comparison of MBIC values. MBIC50 values in accordance with the invention are obtained by growing P. aeruginosa at 37°C in presence of different concentrations of peptides, without agitation, for 24 h, followed by staining the adherent biofilm, dissolving the biofilm and measuring the OD600.
The standard biofilm assay (O'Toole G.A., Pratt L.A., Watnick P.I., Newman D.K., Weaver V.B., and Kolter R. 1999. Genetic approaches to study of biofilms. Methods Enzymol. 310: 91-109) was followed with minor modification, i.e. Mueller-Hinton II broth (MHB) (Becton Dickinson #212322) was used instead of lysogenic broth (LB) or minimal medium. MHB is preferred by The European Committee on Antimicrobial Susceptibility Testing (EUCAST) as the medium for MIC determination because most bacteria can be grown in this medium, which allows a more reliable MIC values comparisons. The MBIC50 was defined as the peptide concentration leading to 50% biofilm reduction (de la Fuente-Nunez C., Korolik V., Bains M., Nguyen U., Breidenstein E. B. M., Horsman S., Lewenza S., Burrows L., Hancock, R. E. W. (2012) Inhibition of bacterial biofilm formation and swarming motility by a small synthetic cationic peptide. 56: 2696-2704). MBIC50 values were obtained by growing P. aeruginosa (PAO1) biofilms in 96-well plates (Falcon #353072) in presence of peptides at 37°C without agitation in MHB. After 24 hours, bacterial growth was evaluated by measuring the OD600 in a microtiter plate reader (EL800, BioTek). Afterwards, the plates were rinsed three times with demineralized water to remove non-attached bacteria. The adherent biofilms were stained with 0.1% Crystal Violet and subsequently dissolved in 20% acetic acid. Dissolved biofilms were quantified by measuring the OD600 in a microtiter plate reader.

in vitro [3] = assay type: in vitro ADME, P. aeruginosa PAO1; details: cells or culture medium
Method: as §1
The stability of peptides was tested against P. aeruginosa PAO1 cell lysate. […] Samples were analyzed on 10-20% Mini-PROTEAN tris-tricine gels (BIO-RAD #4563115) according to manufacturer's recommended protocol. Band intensities were quantified using the program ImageJ (Schneider, C. A., Rasband, W. S. and Eliceiri, K. W. 2012. NIH Image to ImageJ: 25 years of image analysis. Nature methods. 9: 671-675).
The protocol mentioned above was also used to compare stability of peptides in the presence of c-di-GMP. […] 14 µl samples were removed at 2, 4, 6 and 8 hours after incubation at 37°C and analyzed on tris-tricine gels as described above.

P. aeruginosa (PAO1) = experiment: P. aeruginosa growth in presence of peptides (growth curves); assay type: cell-based; details: 64 mg/L peptides, 37°C, MHB; Figure 10
Method: Growth curves were obtained by growing P. aeruginosa (PAO1) in 96-well plates (Falcon #353072) in presence of 64 mg/L peptides at 37°C with agitation in Mueller-Hinton II Broth (MHB) (BD #212322) using an Epoch 2 microplate reader (BioTek).

epithelial HeLa cells = experiment: Cytotoxicity assays: resazurin reduction assay and LDH release assay; assay type: cell-based, human; details: 24 hours, Figures 11 and 12
Method: The cytotoxicity of the peptides was determined with a Resazurin cell viability assay (Sigma #R7017). In a 96-well plate (Corning #3904), monolayers of epithelial HeLa ATCC CCL-2 cells were grown in 100 µl growth medium (DMEM (Sigma #D5796) containing 10% FCS). Afterwards, the medium was removed and either replaced by DMEM/10% FCS containing 2-fold serial diluted peptides with a highest concentration of 256 mg/L. After 24 hours, the medium was removed and replaced by 100 µl fresh growth medium. 1% Triton X-100 (Sigma) was used as positive lysis control. 20 µl of resazurin solution (0.1 mg/ml) was added. After 2 hours, the fluorescence signal was recorded using a microplate reader (Synergy H4 BioTek) with an excitation wavelength of 560 nm and emission wavelength 590 nm.
Cells were prepared and treated with peptides as described for the resazurin reduction assay. 24 hours after peptide treatment, control wells were treated with 1% Triton X-100 (Sigma) as lysis control. LDH release was measured using the LDH Cytotoxicity Detection Kit (Clontech). Absorbance was measured at 490 nm using a microplate reader (Synergy H4 BioTek). The percentage of cell death was calculated as follows: (LDH peptide treated - LDH untreated)/(LDH total lysis - LDH untreated)* 100.

[4] = Table 3, peptides with amino acid substitution, 15°C

| Substance | Dissociation constant (c-di-GMP; [4]) | Remaining peptide after 2 hours (in vitro [1]) [%] | MBIC50 ([2]; PAO1, 24 h) [mg/L] | remaining at 2 h (in vitro [3]) [%] | effect on bacterial growth (P. aeruginosa (PAO1)) | binding affinity to c-di-GMP, in words (c-di-GMP; compared to the core sequence / peptide of SEQ ID NO: 12) | concentration up to which no toxic effect was shown (epithelial HeLa cells) [µg/mL] | Kd (c-di-GMP; Table 3, peptides with amino acid substitution, 15°C, pH 8.0, read-out: Dissociation constant) [nM] | MBIC50 compared to the MBIC50 of the peptide of SEQ ID NO: 28 ([2]; lower) |
| --- | --- | --- | --- | --- | --- | --- | --- | --- | --- |
| Ac-DRRRFNSADYKGPRRAKAD-NH2 [compound 28] | no binding | 11 | 1 to 2 | 23 | – | – | – | – | – |
| Ac-DRRRFNSADYKGPRRAKAD-NH2 [SEQ ID NO: 28, AC-DRRRFNSADYKGPRRAKAD-NH2] | no binding detected | – | – | – | do not show an effect on bacterial growth | significantly reduced binding affinities | – | – | – |
| Ac-DRRRFNSADYKGPRRRKAD-NH2 [SEQ ID NO: 12, AC-DRRRFNSADYKGPRRRKAD-NH2] | – | 11 | – | 32 | do not show an effect on bacterial growth | – | ≤ 64 | 170 | about 4 fold |
